Assay results reported in patent US8912121B2, “Herbicidal compositions comprising 4-amino-3-chloro-5-fluoro-6-(4-chloro-2-fluoro-3-methoxyphenyl)pyridine-2-carboxylic acid or a derivative thereof and certain PS II inhibitors” (Dow Agrosciences LLC, priority 2012, dated 2014).

System: LEFCH (Leptochloa chinensis, Chinese sprangletop)
Assay: In-water applied mixtures, transplanted paddy rice, greenhouse
Assay type: in vivo, Leptochloa chinensis (L.) Nees
Procedure: Weed seeds or nutlets of the desired test plant species were planted in puddled soil (mud) prepared by mixing a shredded, non-sterilized mineral soil (50.5 percent silt, 25.5 percent clay, and 24 percent sand, with a pH of about 7.6 and an organic matter content of about 2.9 percent) and water at a 1:1 volumetric ratio. The prepared mud was dispensed in 365 mL aliquots into 16-ounce (oz.) non-perforated plastic pots with a surface area of 86.59 square centimeters (cm^2) leaving a headspace of 3 centimeters (cm) in each pot Mud was allowed to dry overnight prior to planting or transplanting. Rice seeds were planted in Sun Gro MetroMix® 306 planting mixture, which typically has a pH of 6.0 to 6.8 and an organic matter content of about 30 percent, in plastic plug trays. Seedlings at the second or third leaf stage of growth were transplanted into 840 mL of mud contained in 32-oz. non-perforated plastic pots with a surface area of 86.59 cm^2 4 days prior to herbicide application. The paddy was created by filling the headspace of the pots with 2.5 to 3 cm of water. When required to ensure good germination and healthy plants, a fungicide treatment and/or other chemical or physical treatment was applied. The plants were grown for 4-22 days in a greenhouse with an approximate 14 h photoperiod which was maintained at about 29° C during the day and 26° C. during the night. Nutrients were added as Osmocote® (19:6:12, N:P:K+ minor nutrients) at 2 g per 16-oz. pot and 4 g per 32-oz. pot. Water was added on a regular basis to maintain the paddy flood, and supplemental lighting was provided with overhead metal halide 1000-Watt lamps as necessary. The plants were employed for testing when they reached the first through fourth true leaf stage.
Treatments consisted of the acid or esters of 4-amino-3-chloro-5-fluoro-6-(4-chloro-2-fluoro-3-methoxy-phenyl)pyridine-2-carboxylic acid (compound A) each formulated as an SC (suspension concentrate) and various herbicidal components alone and in combination. Forms of compound A were applied on an acid equivalent basis.
Other herbicidal components were applied on an active ingredient basis and included photosystem II (PSII)-inhibits propanil formulated as […] bentazon-sodium formulated as Basagran®, and simetryne (technical grade material).
Treatment requirements for each compound or herbicidal component were calculated based upon the rates being tested, the concentration of active ingredient or acid equivalent in the formulation, an application volume of 2 mL per component per pot, and an application area of 86.59 cm^2 per pot.
For formulated compounds, a measured amount was placed in an individual 100 or 200 mL glass vial and was dissolved in a volume of 1.25% (v/v) Agri-Dex® crop oil concentrate to obtain application solutions.
For technical grade compounds, a weighed amount was placed in an individual 100 to 200 mL glass vial and was dissolved in a volume of acetone to obtain concentrated stock solutions. […] The concentrated stock solutions obtained were diluted with an equivalent volume of an aqueous mixture containing 2.5% (v/v) crop oil concentrate so that the final application solutions contained 1.25% (v/v) crop oil concentrate.
Applications were made by injecting with a pipetter appropriate amounts of the application solutions, individually and sequentially, into the aqueous layer of the paddy. Control plants were treated in the same manner with the solvent blank. Applications were made so that all treated plant material received the same concentrations of acetone and crop oil concentrate.
The treated plants and control plants were placed in a greenhouse as described above and water was added as needed to maintain a paddy flood. After approximately 3 weeks the condition of the test plants as compared with that of the untreated plants was determined visually and scored on a scale of 0 to 100 percent where 0 corresponds to no injury or growth inhibition and 100 corresponds to complete kill. […]

Compound	Visual Weed Control (%) Obs (8.75 g ae/ha, 21 DAA) [%]	Visual Weed Control (%) Obs (17.5 g ae/ha, 21 DAA) [%]	Visual Weed Control (%) Obs (35 g ae/ha, 21 DAA) [%]	Visual Weed Control (%) Obs (70 g ae/ha, 20 DAA) [%]	Visual Weed Control (%) Obs (42.4 g ae/ha, 20 DAA) [%]	Visual Weed Control (%) Obs (84.8 g ae/ha, 20 DAA) [%]
COc1c(Cl)ccc(-c2nc(C(=O)OCc3ccccc3)c(Cl)c(N)c2F)c1F [Compound A Benzyl Ester, benzyl ester of 4-amino-3-chloro-5-fluoro-6-(4-chloro-2-fluoro-3-methoxy-phenyl)pyridine-2-carboxylic acid]	20	30	55	80	–	–
COc1c(Cl)ccc(-c2nc(C(=O)O)c(Cl)c(N)c2F)c1F [Compound A Acid, 4-amino-3-chloro-6-(4-chloro-2-fluoro-3-methoxyphenyl)-5-fluoropyridine-2-carboxylic acid]	0	0	–	–	15	55
